In article PMC10657444, “Design and evaluation of tadpole-like conformational antimicrobial peptides” (Communications Biology, 2023):
Read-outs that look alike come from different tables or passages of the source.

What was measured:
[1] = test system: K. pneumoniae ATCC 700603; assay: microbe, parasite or virus in culture; type: cell-based, Klebsiella pneumoniae; conditions: for MIC: Klebsiella pneumoniae
Experimental: (§1) MRSA USA 300 and K. pneumoniae ATCC 700603 were employed to assess the development of resistance. From inoculated microtiter panels, an aliquot of the well with the highest concentration permitting growth was taken and back diluted in fresh media to a turbidity of a 0.5 McFarland standard. This suspension was then further diluted and used to inoculate a fresh MIC panel resulting in a final concentration of 5 × 10^6 CFU/mL. Panels were incubated according to CLSI guidelines (M07, 11th edition, 2018), MICs were recorded and the next inoculum was prepared from the well containing the highest concentration of drug that allowed growth in identical fashion as described above.

MRSA USA 300 = assay: microbe, parasite or virus in culture; type: cell-based, Staphylococcus aureus; conditions: for MIC: Staphylococcus aureus
Experimental: as §1

O=C(O)c1cn(C2CC2)c2cc(N3CCNCC3)c(F)cc2c1=O [ciprofloxacin, reference compound]
64 µg/mL: MIC (MRSA USA 300; read-out: Concentration (MIC in drug resistance assay), MRSA USA 300, day 40)
63 µg/mL: MIC (MRSA USA 300; read-out: Concentration (MIC in drug resistance assay), MRSA USA 300, day 39)
1 µg/mL: MIC ([1]; ATCC700603, 48 h, read-out: Concentration (MIC in drug resistance assay), K. pneumoniae ATCC 700603, day 2) | MIC ([1]; ATCC700603, 96 h, read-out: Concentration (MIC in drug resistance assay), K. pneumoniae ATCC 700603, day 4) | MIC ([1]; ATCC700603, 144 h, read-out: Concentration (MIC in drug resistance assay), K. pneumoniae ATCC 700603, day 6) | MIC ([1]; ATCC700603, 168 h, read-out: Concentration (MIC in drug resistance assay), K. pneumoniae ATCC 700603, day 7) | MIC ([1]; ATCC700603, 216 h, read-out: Concentration (MIC in drug resistance assay), K. pneumoniae ATCC 700603, day 9) | MIC ([1]; ATCC700603, 240 h, read-out: Concentration (MIC in drug resistance assay), K. pneumoniae ATCC 700603, day 10) | MIC (MRSA USA 300; 0 h, read-out: Concentration (MIC in drug resistance assay), MRSA USA 300, day 0) | MIC (MRSA USA 300; 48 h, read-out: Concentration (MIC in drug resistance assay), MRSA USA 300, day 2) | MIC (MRSA USA 300; 72 h, read-out: Concentration (MIC in drug resistance assay), MRSA USA 300, day 3) | MIC (MRSA USA 300; 120 h, read-out: Concentration (MIC in drug resistance assay), MRSA USA 300, day 5) | MIC (MRSA USA 300; 144 h, read-out: Concentration (MIC in drug resistance assay), MRSA USA 300, day 6) | MIC (MRSA USA 300; 264 h, read-out: Concentration (MIC in drug resistance assay), MRSA USA 300, day 11)
0.5 µg/mL: MIC ([1]; ATCC700603, 24 h, read-out: Concentration (MIC in drug resistance assay), K. pneumoniae ATCC 700603, day 1) | MIC ([1]; ATCC700603, 72 h, read-out: Concentration (MIC in drug resistance assay), K. pneumoniae ATCC 700603, day 3) | MIC ([1]; ATCC700603, 120 h, read-out: Concentration (MIC in drug resistance assay), K. pneumoniae ATCC 700603, day 5) | MIC (MRSA USA 300; 24 h, read-out: Concentration (MIC in drug resistance assay), MRSA USA 300, day 1)
64 fold: increase in MIC after 40 passages ([1]; serial passage at sub-MIC) | increase in MIC after 40 passages (MRSA USA 300; serial passage at sub-MIC)
16 µg/mL: MIC ([1]; ATCC700603, read-out: Concentration (MIC in drug resistance assay), K. pneumoniae ATCC 700603, day 35) | MIC ([1]; ATCC700603, read-out: Concentration (MIC in drug resistance assay), K. pneumoniae ATCC 700603, day 36) | MIC ([1]; ATCC700603, read-out: Concentration (MIC in drug resistance assay), K. pneumoniae ATCC 700603, day 37) | MIC ([1]; ATCC700603, read-out: Concentration (MIC in drug resistance assay), K. pneumoniae ATCC 700603, day 38) | MIC ([1]; ATCC700603, read-out: Concentration (MIC in drug resistance assay), K. pneumoniae ATCC 700603, day 39) | MIC ([1]; ATCC700603, read-out: Concentration (MIC in drug resistance assay), K. pneumoniae ATCC 700603, day 40) | MIC (MRSA USA 300; read-out: Concentration (MIC in drug resistance assay), MRSA USA 300, day 33) | MIC (MRSA USA 300; read-out: Concentration (MIC in drug resistance assay), MRSA USA 300, day 34) | MIC (MRSA USA 300; read-out: Concentration (MIC in drug resistance assay), MRSA USA 300, day 35)
32 µg/mL: MIC (MRSA USA 300; read-out: Concentration (MIC in drug resistance assay), MRSA USA 300, day 32) | MIC (MRSA USA 300; read-out: Concentration (MIC in drug resistance assay), MRSA USA 300, day 36) | MIC (MRSA USA 300; read-out: Concentration (MIC in drug resistance assay), MRSA USA 300, day 37) | MIC (MRSA USA 300; read-out: Concentration (MIC in drug resistance assay), MRSA USA 300, day 38)
2 µg/mL: MIC ([1]; ATCC700603, 192 h, read-out: Concentration (MIC in drug resistance assay), K. pneumoniae ATCC 700603, day 8) | MIC ([1]; ATCC700603, 264 h, read-out: Concentration (MIC in drug resistance assay), K. pneumoniae ATCC 700603, day 11) | MIC ([1]; ATCC700603, 288 h, read-out: Concentration (MIC in drug resistance assay), K. pneumoniae ATCC 700603, day 12) | MIC ([1]; ATCC700603, 312 h, read-out: Concentration (MIC in drug resistance assay), K. pneumoniae ATCC 700603, day 13) | MIC (MRSA USA 300; 96 h, read-out: Concentration (MIC in drug resistance assay), MRSA USA 300, day 4) | MIC (MRSA USA 300; 168 h, read-out: Concentration (MIC in drug resistance assay), MRSA USA 300, day 7) | MIC (MRSA USA 300; 240 h, read-out: Concentration (MIC in drug resistance assay), MRSA USA 300, day 10) | MIC (MRSA USA 300; 312 h, read-out: Concentration (MIC in drug resistance assay), MRSA USA 300, day 13) | MIC (MRSA USA 300; 336 h, read-out: Concentration (MIC in drug resistance assay), MRSA USA 300, day 14) | MIC (MRSA USA 300; 360 h, read-out: Concentration (MIC in drug resistance assay), MRSA USA 300, day 15) | MIC (MRSA USA 300; 384 h, read-out: Concentration (MIC in drug resistance assay), MRSA USA 300, day 16) | MIC (MRSA USA 300; 408 h, read-out: Concentration (MIC in drug resistance assay), MRSA USA 300, day 17) | MIC (MRSA USA 300; 432 h, read-out: Concentration (MIC in drug resistance assay), MRSA USA 300, day 18) | MIC (MRSA USA 300; 456 h, read-out: Concentration (MIC in drug resistance assay), MRSA USA 300, day 19) | MIC (MRSA USA 300; 504 h, read-out: Concentration (MIC in drug resistance assay), MRSA USA 300, day 21) | MIC (MRSA USA 300; 528 h, read-out: Concentration (MIC in drug resistance assay), MRSA USA 300, day 22) | MIC (MRSA USA 300; 552 h, read-out: Concentration (MIC in drug resistance assay), MRSA USA 300, day 23) | MIC (MRSA USA 300; 576 h, read-out: Concentration (MIC in drug resistance assay), MRSA USA 300, day 24) | MIC (MRSA USA 300; 600 h, read-out: Concentration (MIC in drug resistance assay), MRSA USA 300, day 25) | MIC (MRSA USA 300; 648 h, read-out: Concentration (MIC in drug resistance assay), MRSA USA 300, day 27) | MIC (MRSA USA 300; 672 h, read-out: Concentration (MIC in drug resistance assay), MRSA USA 300, day 28) | MIC (MRSA USA 300; 696 h, read-out: Concentration (MIC in drug resistance assay), MRSA USA 300, day 29)
0.25 µg/mL: MIC ([1]; ATCC700603, 0 h, read-out: Concentration (MIC in drug resistance assay), K. pneumoniae ATCC 700603, day 0)
8 µg/mL: MIC ([1]; ATCC700603, 480 h, read-out: Concentration (MIC in drug resistance assay), K. pneumoniae ATCC 700603, day 20) | MIC ([1]; ATCC700603, 624 h, read-out: Concentration (MIC in drug resistance assay), K. pneumoniae ATCC 700603, day 26) | MIC ([1]; ATCC700603, 648 h, read-out: Concentration (MIC in drug resistance assay), K. pneumoniae ATCC 700603, day 27) | MIC ([1]; ATCC700603, 672 h, read-out: Concentration (MIC in drug resistance assay), K. pneumoniae ATCC 700603, day 28) | MIC ([1]; ATCC700603, 696 h, read-out: Concentration (MIC in drug resistance assay), K. pneumoniae ATCC 700603, day 29) | MIC ([1]; ATCC700603, read-out: Concentration (MIC in drug resistance assay), K. pneumoniae ATCC 700603, day 30) | MIC ([1]; ATCC700603, read-out: Concentration (MIC in drug resistance assay), K. pneumoniae ATCC 700603, day 31) | MIC ([1]; ATCC700603, read-out: Concentration (MIC in drug resistance assay), K. pneumoniae ATCC 700603, day 32) | MIC ([1]; ATCC700603, read-out: Concentration (MIC in drug resistance assay), K. pneumoniae ATCC 700603, day 33) | MIC ([1]; ATCC700603, read-out: Concentration (MIC in drug resistance assay), K. pneumoniae ATCC 700603, day 34) | MIC (MRSA USA 300; read-out: Concentration (MIC in drug resistance assay), MRSA USA 300, day 31)
4 µg/mL: MIC ([1]; ATCC700603, 336 h, read-out: Concentration (MIC in drug resistance assay), K. pneumoniae ATCC 700603, day 14) | MIC ([1]; ATCC700603, 360 h, read-out: Concentration (MIC in drug resistance assay), K. pneumoniae ATCC 700603, day 15) | MIC ([1]; ATCC700603, 384 h, read-out: Concentration (MIC in drug resistance assay), K. pneumoniae ATCC 700603, day 16) | MIC ([1]; ATCC700603, 408 h, read-out: Concentration (MIC in drug resistance assay), K. pneumoniae ATCC 700603, day 17) | MIC ([1]; ATCC700603, 432 h, read-out: Concentration (MIC in drug resistance assay), K. pneumoniae ATCC 700603, day 18) | MIC ([1]; ATCC700603, 456 h, read-out: Concentration (MIC in drug resistance assay), K. pneumoniae ATCC 700603, day 19) | MIC ([1]; ATCC700603, 504 h, read-out: Concentration (MIC in drug resistance assay), K. pneumoniae ATCC 700603, day 21) | MIC ([1]; ATCC700603, 528 h, read-out: Concentration (MIC in drug resistance assay), K. pneumoniae ATCC 700603, day 22) | MIC ([1]; ATCC700603, 552 h, read-out: Concentration (MIC in drug resistance assay), K. pneumoniae ATCC 700603, day 23) | MIC ([1]; ATCC700603, 576 h, read-out: Concentration (MIC in drug resistance assay), K. pneumoniae ATCC 700603, day 24) | MIC ([1]; ATCC700603, 600 h, read-out: Concentration (MIC in drug resistance assay), K. pneumoniae ATCC 700603, day 25) | MIC (MRSA USA 300; 192 h, read-out: Concentration (MIC in drug resistance assay), MRSA USA 300, day 8) | MIC (MRSA USA 300; 216 h, read-out: Concentration (MIC in drug resistance assay), MRSA USA 300, day 9) | MIC (MRSA USA 300; 288 h, read-out: Concentration (MIC in drug resistance assay), MRSA USA 300, day 12) | MIC (MRSA USA 300; 480 h, read-out: Concentration (MIC in drug resistance assay), MRSA USA 300, day 20) | MIC (MRSA USA 300; 624 h, read-out: Concentration (MIC in drug resistance assay), MRSA USA 300, day 26) | MIC (MRSA USA 300; read-out: Concentration (MIC in drug resistance assay), MRSA USA 300, day 30)
